Where no end group is shown, it is not given here.
Tested on: female rats
Assay: Subcutaneous administration to female rats: GH effects and anti-peptide antibody
Format: in vivo

Question: How did the anti-peptide antibody induction turn out when “Ac-GTSDRVYEKLAGSKNFFWKTFTSS [P7, Acetyl-GTSDRVYEKLAGSKNFFWKTFTSS]” was run?
Answer: without inducing, nevertheless, anti-peptide antibody

From patent US9657080B2, “Methods for treating diseases with peptides that inhibit IGF-1” (Universite Pierre et Marie Curie (Paris 6), priority 2009, dated 2017)
